Assay results from patent US20160242416A1, “FUNGICIDAL ISOXAZOLINE CARBINOLS” (E I DU PONT DE NEMOURS AND COMPANY, priority 2015, published 2016).

Columns and labels:
[1] = system: Erysiphe graminis f sp. tritici; assay: Test G: wheat powdery mildew, preventive spray on wheat seedlings; conditions: wheat powdery mildew, 100 = 100% disease control, 0 = no control
[2] = system: Puccinia recondita f sp. tritici; assay: Test F: wheat leaf rust, preventive spray on wheat seedlings; conditions: wheat leaf rust, 100 = 100% disease control, 0 = no control
[3] = system: Stagonospora nodorum; assay: Test D: wheat glume blotch, preventive spray on wheat seedlings; conditions: wheat glume blotch, 100 = 100% disease control, 0 = no control
[4] = system: Zymoseptoria tritici; assay: Test E: wheat leaf blotch, preventive spray on wheat seedlings; conditions: wheat leaf blotch, 100 = 100% disease control, 0 = no control
[5] = system: Botrytis cinerea; assay: Test B: gray mold, preventive spray on tomato seedlings; conditions: gray mold on tomato, 100 = 100% disease control, 0 = no control

Structure (SMILES) | Test G rating (% disease control) ([1]; 10 ppm) | Test F rating (% disease control) ([2]; 10 ppm) | Test D rating (% disease control) ([3]; 10 ppm) | Test E rating (% disease control) ([4]; 10 ppm) | Test B rating (% disease control) ([5]; 10 ppm) | Test G rating (% disease control) ([1]; 50 ppm (asterisk)) | Test F rating (% disease control) ([2]; 50 ppm (asterisk)) | Test D rating (% disease control) ([3]; 50 ppm (asterisk)) | Test E rating (% disease control) ([4]; 50 ppm (asterisk)) | Test B rating (% disease control) ([5]; 50 ppm (asterisk))
OC(Cn1cncn1)(C1=NOC(COc2ccc(Cl)nc2)C1)c1ccc(Cl)cc1 (single isomer, unassigned) [Compound 102] | 69% | 18% | 0% | 0% | 0% |  |  |  |  | 
OC(Cn1cncn1)(C1=NOC(c2ccc(Cl)cc2)C1)c1ccc(C(F)(F)F)cc1 (single isomer, unassigned) [Compound 105] | 99% | 100% | 96% | 8% | 0% |  |  |  |  | 
OC(Cn1cncn1)(C1=NOC(c2ccc(Cl)cc2)C1)c1ccc(C(F)(F)F)cc1 (single isomer, unassigned) [Compound 106] | 89% | 72% | 0% | 0% | 0% |  |  |  |  | 
CSc1ccc(C2CC(C(O)(Cn3cncn3)c3ccc(Cl)cc3)=NO2)cc1 (single isomer, unassigned) [Compound 107] | 99% | 100% | 32% | 58% | 0% |  |  |  |  | 
CSc1ccc(C2CC(C(O)(Cn3cncn3)c3ccc(Cl)cc3)=NO2)cc1 (single isomer, unassigned) [Compound 108] | 64% | 78% | 0% | 25% | 0% |  |  |  |  | 
OC(Cn1cncn1)(C1=NOC(c2ccc(Cl)cc2)C1)c1cccc(Oc2ccccc2)c1 (single isomer, unassigned) [Compound 109] | 93% | 100% | 59% | 66% | 0% |  |  |  |  | 
OC(Cn1cncn1)(C1=NOC(c2ccc(Cl)cc2)C1)c1cccc(Oc2ccccc2)c1 (single isomer, unassigned) [Compound 110] | 48% | 21% | 0% | 72% | 0% |  |  |  |  | 
C[S+]([O-])c1ccc(C2CC(C(O)(Cn3cncn3)c3ccc(Cl)cc3)=NO2)cc1 (single isomer, unassigned) [Compound 111] | 98% | 100% | 0% | 9% | 0% |  |  |  |  | 
C[S+]([O-])c1ccc(C2CC(C(O)(Cn3cncn3)c3ccc(Cl)cc3)=NO2)cc1 (single isomer, unassigned) [Compound 112] | 69% | 65% | 0% | 80% | 0% |  |  |  |  | 
CS(=O)(=O)c1ccc(C2CC(C(O)(Cn3cncn3)c3ccc(Cl)cc3)=NO2)cc1 (single isomer, unassigned) [Compound 113] | 98% | 100% | 0% | 9% | 0% |  |  |  |  | 
CS(=O)(=O)c1ccc(C2CC(C(O)(Cn3cncn3)c3ccc(Cl)cc3)=NO2)cc1 (single isomer, unassigned) [Compound 114] | 56% | 36% | 0% | 39% | 0% |  |  |  |  | 
OC(Cc1ccccc1)(Cn1cncn1)C1=NOC(c2ccc(Cl)cc2)C1 (single isomer, unassigned) [Compound 121] |  |  |  |  |  | 100% | 100% | 100% | 62% | 100%
CC1(C(O)(Cn2cncn2)C2=NOC(c3ccc(Cl)cc3)C2)CC1 (single isomer, unassigned) [Compound 126] | 99% | 100% | 100% | 89% | 97% |  |  |  |  | 
CC1(C(O)(Cn2cncn2)C2=NOC(c3ccc(Cl)cc3)C2)CC1 (single isomer, unassigned) [Compound 127] | 98% | 98% | 98% | 9% | 0% |  |  |  |  | 
OC(Cn1cncn1)(C1=NOC(c2ccc(Cl)cc2)C1)c1ccc(Oc2ccccc2)cc1 (single isomer, unassigned) [Compound 128] |  |  |  |  |  | 99% | 100% | 100% | 95% | 0%
OC(Cn1cncn1)(C1=NOC(c2ccc(Cl)cc2)C1)c1ccccc1F (single isomer, unassigned) [Compound 134] | 98% | 99% | 100% | 31% | 0% |  |  |  |  | 
OC(Cn1cncn1)(C1=NOC(c2ccc(Cl)cc2)C1)c1ccccc1F (single isomer, unassigned) [Compound 135] | 81% | 98% | 69% | 1% | 0% |  |  |  |  | 
OC(Cn1cncn1)(C1=NOC(Cc2ccccc2)C1)c1ccc(Cl)cc1 (single isomer, unassigned) [Compound 137] | 99% | 99% | 77% | 26% | 0% |  |  |  |  | 
CC(C)(C)CC(O)(Cn1cncn1)C1=NOC(c2ccc(Cl)cc2)C1 (single isomer, unassigned) [Compound 138] | 100% | 100% | 100% | 0% | 17% |  |  |  |  | 
CC(C)(C)CC(O)(Cn1cncn1)C1=NOC(c2ccc(Cl)cc2)C1 (single isomer, unassigned) [Compound 139] | 99% | 100% | 99% | 6% | 0% |  |  |  |  | 
OC(Cn1cncn1)(C1=NOC(c2ccc(Cl)cc2)C1)c1ccc(Cl)cc1Cl (single isomer, unassigned) [Compound 140] | 99% | 100% | 82% | 67% | 0% |  |  |  |  | 
OC(Cn1cncn1)(C1=NOC(c2ccc(Cl)cc2)C1)c1ccc(Cl)cc1Cl (single isomer, unassigned) [Compound 141] | 84% | 99% | 0% | 1% | 0% |  |  |  |  | 
OC(Cn1cncn1)(C1=NOC(c2ccc(Oc3ccccc3)cc2)C1)c1ccc(Cl)cc1 (single isomer, unassigned) [Compound 142] | 99% | 100% | 86% | 91% | 0% |  |  |  |  | 
